PMC11240139, “Exploring the antitumor potential of novel quinoline derivatives via tubulin polymerization inhibition in breast cancer; design, synthesis and molecular docking” (RSC Advances, 2024)

How the values were obtained:
Format in all cases: cell-based
U251 (CNS cancer) = assay: NCI-60 SRB cytotoxicity screen
MALME-3M (melanoma) = assay: NCI-60 SRB cytotoxicity screen
SK-MEL-2 (melanoma) = assay: NCI-60 SRB cytotoxicity screen
SK-MEL-28 (melanoma) = assay: NCI-60 SRB cytotoxicity screen
UACC-62 (melanoma) = assay: NCI-60 SRB cytotoxicity screen
OVCAR-3 (ovarian cancer) = assay: NCI-60 SRB cytotoxicity screen
OVCAR-5 (ovarian cancer) = assay: NCI-60 SRB cytotoxicity screen
[1] = test system: NCI/ADR-RES (ovarian cancer); assay: NCI-60 SRB cytotoxicity screen
SK-OV-3 (ovarian cancer) = assay: NCI-60 SRB cytotoxicity screen
786-0 (renal cancer) = assay: NCI-60 SRB cytotoxicity screen
ACHN (renal cancer) = assay: NCI-60 SRB cytotoxicity screen
CAKI-1 (renal cancer) = assay: NCI-60 SRB cytotoxicity screen
RXF 393 (renal cancer) = assay: NCI-60 SRB cytotoxicity screen
TK-10 (renal cancer) = assay: NCI-60 SRB cytotoxicity screen
PC-3 (prostate cancer) = assay: NCI-60 SRB cytotoxicity screen
MCF7 (breast cancer) = assay: NCI-60 SRB cytotoxicity screen
BT-549 (breast cancer) = assay: NCI-60 SRB cytotoxicity screen
[2] = test system: 60 cancer cell lines (NCI); assay: NCI-60 single-dose screen, overall verdict over the panel; conditions: single dose 10 μM, whole panel
Protocol: The cytotoxic activity of the synthesized quinoline derivatives was determined by the national cancer institute (NCI, Bethesda, Maryland, USA) against 60 different cancer cell lines at a single high dose (10^−5 M) in the full NCI 60 cell panel using the sulforhodamine B assay for cell viability evaluation. In summary, 5 × 10^3 cells were in 96-well plate and incubated in complete media for 24 h. Cells were treated with 100 μL of media containing each newly synthesized compound. After drug exposure, cells were fixed by replacing media with 150 μL of 10% TCA and incubated at 4 °C for 1 h. The TCA solution was removed, and the cells were washed 5 times with distilled water. Aliquots of 70 μL SRB solution (0.4% w/v) were added and incubated in a dark place at room temperature for 10 min. The plates were washed 3 times with 1% acetic acid and allowed to air-dry overnight. Then, 150 μL of TRIS (10 mM) was added to dissolve protein-bound SRB stain. The absorbance was measured at 540 nm.% Cytotoxicity = [1 − (AVx/AVNC)] × 100where AVx denotes the average absorbance of the sample well and AVNC denotes the average absorbance of the negative control.

[3] = Homo sapiens, five-dose assay, read-out: LC50 (the source's name)
[4] = Homo sapiens, single dose 10 μM, read-out: growth inhibition (GI%)
[5] = Homo sapiens, SK-MEL-28, five-dose assay
[6] = Homo sapiens, OVCAR-3, five-dose assay
[7] = Homo sapiens, RXF 393, five-dose assay
[8] = Homo sapiens, BT-549, five-dose assay

CCc1cccc2cc(-c3cc(-c4cc(OC)c(OC)c(OC)c4)[nH]c(=O)c3C#N)c(Cl)nc12 [Compound 4c, 4-(2-Chloro-8-ethylquinolin-3-yl)-2-oxo-6-(3,4,5-trimethoxyphenyl)-1,2-dihydropyridine-3-carbonitrile]
inhibition at 10 µM (U251 (CNS cancer); Homo sapiens, U-251, U251, single dose 10 μM, read-out: growth inhibition (GI%)): > 100% | TGI (U251 (CNS cancer); U251, five-dose assay): 28.40 µM | growth inhibition (GI%) (U251 (CNS cancer); U251, single dose 10 μM): lethal effect | GI50 (MALME-3M (melanoma); Homo sapiens, five-dose assay): 10.1 µM | CC50 (MALME-3M (melanoma); [3]): > 100 µM | inhibition at 10 µM (MALME-3M (melanoma); [4]): 89.4% | TGI (MALME-3M (melanoma); five-dose assay): 40.00 µM | GI50 (SK-MEL-2 (melanoma); Homo sapiens, SK-MEL-2, five-dose assay): 39.8 µM | CC50 (SK-MEL-2 (melanoma); Homo sapiens, SK-MEL-2, five-dose assay, read-out: LC50 (the source's name)): > 100 µM | inhibition at 10 µM (SK-MEL-2 (melanoma); Homo sapiens, SK-MEL-2, single dose 10 μM, read-out: growth inhibition (GI%)): 29.8% | TGI (SK-MEL-2 (melanoma); SK-MEL-2, five-dose assay): >100 µM | GI50 (SK-MEL-28 (melanoma); [5]): 21.1 µM | LC50 (concentration causing 50% net cell kill) (SK-MEL-28 (melanoma); [5]): > 100 µM | inhibition at 10 µM (SK-MEL-28 (melanoma); Homo sapiens, SK-MEL-28, single dose 10 μM, read-out: growth inhibition (GI%)): 68.9% | TGI (SK-MEL-28 (melanoma); SK-MEL-28, five-dose assay): >100 µM | GI50 (UACC-62 (melanoma); Homo sapiens, UACC-62, five-dose assay): 17.5 µM | CC50 (UACC-62 (melanoma); Homo sapiens, UACC-62, five-dose assay, read-out: LC50 (the source's name)): > 100 µM | inhibition at 10 µM (UACC-62 (melanoma); Homo sapiens, UACC-62, single dose 10 μM, read-out: growth inhibition (GI%)): > 100% | TGI (UACC-62 (melanoma); UACC-62, five-dose assay): 60.10 µM | growth inhibition (GI%) (UACC-62 (melanoma); UACC-62, single dose 10 μM): lethal effect | GI50 (OVCAR-3 (ovarian cancer); [6]): 14.2 µM | LC50 (50% lethal concentration) (OVCAR-3 (ovarian cancer); [6]): 62.3 µM | inhibition at 10 µM (OVCAR-3 (ovarian cancer); Homo sapiens, OVCAR-3, single dose 10 μM, read-out: growth inhibition (GI%)): > 100% | TGI (OVCAR-3 (ovarian cancer); OVCAR-3, five-dose assay): 29.80 µM | growth inhibition (GI%) (OVCAR-3 (ovarian cancer); OVCAR-3, single dose 10 μM): lethal effect | GI50 (OVCAR-5 (ovarian cancer); Homo sapiens, OVCAR-5, five-dose assay): 48.4 µM | CC50 (OVCAR-5 (ovarian cancer); Homo sapiens, OVCAR-5, five-dose assay, read-out: LC50 (the source's name)): > 100 µM | inhibition at 10 µM (OVCAR-5 (ovarian cancer); Homo sapiens, OVCAR-5, single dose 10 μM, read-out: growth inhibition (GI%)): 33.3% | TGI (OVCAR-5 (ovarian cancer); OVCAR-5, five-dose assay): >100 µM | GI50 ([1]; Homo sapiens, five-dose assay): 44.9 µM | CC50 [1, 3]: > 100 µM | inhibition at 10 µM [1, 4]: 59.9% | TGI ([1]; five-dose assay): >100 µM | GI50 (SK-OV-3 (ovarian cancer); Homo sapiens, SK-OV-3, five-dose assay): 26 µM | CC50 (SK-OV-3 (ovarian cancer); Homo sapiens, SK-OV-3, five-dose assay, read-out: LC50 (the source's name)): > 100 µM | inhibition at 10 µM (SK-OV-3 (ovarian cancer); Homo sapiens, SK-OV-3, single dose 10 μM, read-out: growth inhibition (GI%)): 61.4% | TGI (SK-OV-3 (ovarian cancer); SK-OV-3, five-dose assay): >100 µM | TGI (786-0 (renal cancer); 786-0, five-dose assay): 26.70 µM | growth inhibition (GI%) (786-0 (renal cancer); 786-0, single dose 10 μM): lethal effect | GI50 (786-0 (renal cancer); Homo sapiens, 786-0, five-dose assay): 11.7 µM | CC50 (786-0 (renal cancer); Homo sapiens, 786-0, five-dose assay, read-out: LC50 (the source's name)): 61.1 µM | inhibition at 10 µM (786-0 (renal cancer); Homo sapiens, 786-0, single dose 10 μM, read-out: growth inhibition (GI%)): > 100% | GI50 (ACHN (renal cancer); Homo sapiens, five-dose assay): 15.6 µM | LC50 (ACHN (renal cancer); Homo sapiens, five-dose assay): 61.8 µM | inhibition at 10 µM (ACHN (renal cancer); [4]): 75.7% | TGI (ACHN (renal cancer); five-dose assay): 31.00 µM | TGI (CAKI-1 (renal cancer); CAKI-1, five-dose assay): 22.90 µM | GI50 (CAKI-1 (renal cancer); Homo sapiens, CAKI-1, five-dose assay): 10.7 µM | CC50 (CAKI-1 (renal cancer); Homo sapiens, CAKI-1, five-dose assay, read-out: LC50 (the source's name)): 49.2 µM | inhibition at 10 µM (CAKI-1 (renal cancer); Homo sapiens, CAKI-1, single dose 10 μM, read-out: growth inhibition (GI%)): 95.1% | GI50 (RXF 393 (renal cancer); [7]): 2.21 µM | LC50 (RXF 393 (renal cancer); [7]): 35.4 µM | inhibition at 10 µM (RXF 393 (renal cancer); Homo sapiens, RXF 393, single dose 10 μM, read-out: growth inhibition (GI%)): > 100% | TGI (RXF 393 (renal cancer); RXF 393, five-dose assay): 6.69 µM | growth inhibition (GI%) (RXF 393 (renal cancer); RXF 393, single dose 10 μM): lethal effect | GI50 (TK-10 (renal cancer); Homo sapiens, TK-10, five-dose assay): 17.5 µM | CC50 (TK-10 (renal cancer); Homo sapiens, TK-10, five-dose assay, read-out: LC50 (the source's name)): > 100 µM | inhibition at 10 µM (TK-10 (renal cancer); Homo sapiens, TK-10, single dose 10 μM, read-out: growth inhibition (GI%)): > 100% | TGI (TK-10 (renal cancer); TK-10, five-dose assay): 34.50 µM | growth inhibition (GI%) (TK-10 (renal cancer); TK-10, single dose 10 μM): lethal effect | GI50 (PC-3 (prostate cancer); PC-3, five-dose assay): 40.3 µM | TGI (PC-3 (prostate cancer); PC-3, five-dose assay): >100 µM | CC50 (PC-3 (prostate cancer); PC-3, five-dose assay, read-out: LC50 (the source's name)): > 100 µM | inhibition at 10 µM (PC-3 (prostate cancer); PC-3, single dose 10 μM, read-out: growth inhibition (GI%)): 67.6% | GI50 (MCF7 (breast cancer); Homo sapiens, MCF7, five-dose assay): 24 µM | CC50 (MCF7 (breast cancer); Homo sapiens, MCF7, five-dose assay, read-out: LC50 (the source's name)): > 100 µM | inhibition at 10 µM (MCF7 (breast cancer); Homo sapiens, MCF7, single dose 10 μM, read-out: growth inhibition (GI%)): 54.8% | TGI (MCF7 (breast cancer); MCF7, five-dose assay): >100 µM | TGI (BT-549 (breast cancer); BT-549, five-dose assay): 28.10 µM | GI50 (BT-549 (breast cancer); [8]): 4.11 µM | LC50 (BT-549 (breast cancer); [8]): > 100 µM | inhibition at 10 µM (BT-549 (breast cancer); Homo sapiens, BT-549, single dose 10 μM, read-out: growth inhibition (GI%)): 57.5% | cytotoxic activity over the cell lines (in words) [2]: highest level of cytotoxic activity
